# Data as given in BindingDB's records for doi:10.1016/S0960-894X(96)00274-0 (1996).
# Experiments:
# [1] = Compound was tested for Inhibition of 9 (1 nM) binding to Opioid receptor delta 1 from bovine striatal Membranes
# [2] = Compound was tested for Inhibition of [3H]-DPDPE (0.2 nM) binding to Opioid receptor from bovine striatal Membranes
smiles,measurement,setting,value
"C=C(Cl)C(=O)N[C@@]12CCC(=O)[C@@H]3Oc4c(O)ccc5c4C31CCN(CC1CC1)C2C5 (stereo partly drawn) [1N-[4-cyclopropylmethyl-10-hydroxy-14-oxo-(13R,17S)-12-oxa-4-azapentacyclo[9.6.1.01,13.05,17.07,18]octadeca-7(18),8,10-trien-17-yl]-2-chloroacrylamide]",IC50,[1],177 nM
same,IC50,[2],501 nM
"C=C(Cl)C(=O)N[C@@H]1CCC2C3Cc4ccc(O)c5c4C2(CCN3CC2CC2)[C@H]1O5 (stereo partly drawn) [1N-[4-cyclopropylmethyl-10-hydroxy-(13R,14R)-12-oxa-4-azapentacyclo[9.6.1.01,13.05,17.07,18]octadeca-7(18),8,10-trien-14-yl]-2-chloroacrylamide]",IC50,[1],0.53 nM
same,IC50,[2],1.5 nM
"C=C(Cl)C(=O)N[C@@]12CCC(=O)[C@@H]3Oc4c(O)ccc5c4C31CCN(C)C2C5 (stereo partly drawn) [1N-[10-hydroxy-4-methyl-14-oxo-(13R,17S)-12-oxa-4-azapentacyclo[9.6.1.01,13.05,17.07,18]octadeca-7(18),8,10-trien-17-yl]-2-chloroacrylamide]",IC50,[1],178 nM
same,IC50,[2],184 nM
"C=C(Cl)C(=O)N[C@@H]1CCC2C3Cc4ccc(O)c5c4C2(CCN3C)[C@H]1O5 (stereo partly drawn) [1N-[10-hydroxy-4-methyl-(13R,14R)-12-oxa-4-azapentacyclo[9.6.1.01,13.05,17.07,18]octadeca-7(18),8,10-trien-14-yl]-2-chloroacrylamide]",IC50,[1],45 nM
same,IC50,[2],26 nM
